# Reference: patent publication US8710233B2 (Gruenenthal GmbH, priority 2005, dated 2014)
# Experiments:
# [1] = molecular target: VR1/TRPV1 receptor (Homo sapiens, UniProt Q8NER1); assay: IC50 (human) after pH stimulus; type: cell-based; conditions: for IC50: table 4
# [2] = molecular target: T1, vanilloid receptor (VR1) (Homo sapiens, UniProt Q8NER1); assay: FLIPR Ca2+ influx assay on CHO K1 cells transfected with the VR1 gene (pharmacological method II); type: cell-based; conditions: table 4; capsaicin; read-out: Ki (human) Cap.
# T1 construct: expressed in transfected cells; host or cells: CHO K1 cells (ECACC), stably transfected
# From the text: In this FLIPR assay, the influx of Ca^2+ is quantified with the assistance of a Ca^2+-sensitive dye (type Fluo-4, Molecular Probes Europe BV, Leiden, Netherlands) in a Fluorescent Imaging Plate Reader (FLIPR, Molecular Devices, Sunnyvale, USA) as described below.
# II. Functional Investigations on the Vanilloid Receptor (VR1)
# The agonistic or antagonistic action of the substances to be investigated on the vanilloid receptor (VR1) may also be determined with the following assay. According to this assay, the influx of Ca^2+ through the channel is quantified with the assistance of a Ca^2+-sensitive dye (type Fluo-4, Molecular Probes Europe BV, Leiden, Netherlands) in a Fluorescent Imaging Plate Reader (FLIPR, Molecular Devices, Sunnyvale, USA).
# Chinese hamster ovary cells (CHO K1 cells, European Collection of Cell Cultures (ECACC), Great Britain) are stably transfected with the VR1 gene. For functional investigations, these cells are plated out onto poly-D-lysine-coated, black 96 well plates with a clear bottom (BD Biosciences, Heidelberg, Germany) at a density of 25,000 cells/well. The cells are incubated overnight at 37° C. and 5% CO2 in a culture medium (Ham's Nutrient Mixture F12, 10 vol. % FCS (foetal calf serum), 18 μg/mL L-proline). On the following day, the cells are incubated with Fluo-4 (Fluo-4 2 μM, Pluronic F127 0.01 vol. %, Molecular Probes in HBSS (Hank's buffered saline solution), Gibco Invitrogen GmbH, Karlsruhe, Germany) for 30 minutes at 37° C. The plates are then washed 3 times with HBSS buffer and, after a further 15 minutes' incubation at room temperature, used for […] measurement in the FLIPR. […] Quantification proceeds by measuring the highest fluorescence intensity (FC, fluorescence counts) over time.
# The FLIPR protocol comprises 2 additions of substance. The substances to be tested (10 μM) are firstly pipetted onto the cells and Ca^2+ influx is compared with the control (capsaicin 10 μM) (% activation relative to the Ca^2+ signal after addition of 10 μM of capsaicin). After 5 minutes' incubation, 100 nM of capsaicin are added and the influx of Ca^2+ is again determined.
# The percentage inhibition in comparison with the maximum achievable inhibition with 10 μM capsaicin is calculated.
# [3] = read-out: inhibition in percent, IC50 (human) after pH stimulus
# [4] = @ 1 μM, ne = no effect, read-out: inhibition in percent, IC50 (human) after pH stimulus
# Sequence of VR1/TRPV1 receptor (Q8NER1 whole entry): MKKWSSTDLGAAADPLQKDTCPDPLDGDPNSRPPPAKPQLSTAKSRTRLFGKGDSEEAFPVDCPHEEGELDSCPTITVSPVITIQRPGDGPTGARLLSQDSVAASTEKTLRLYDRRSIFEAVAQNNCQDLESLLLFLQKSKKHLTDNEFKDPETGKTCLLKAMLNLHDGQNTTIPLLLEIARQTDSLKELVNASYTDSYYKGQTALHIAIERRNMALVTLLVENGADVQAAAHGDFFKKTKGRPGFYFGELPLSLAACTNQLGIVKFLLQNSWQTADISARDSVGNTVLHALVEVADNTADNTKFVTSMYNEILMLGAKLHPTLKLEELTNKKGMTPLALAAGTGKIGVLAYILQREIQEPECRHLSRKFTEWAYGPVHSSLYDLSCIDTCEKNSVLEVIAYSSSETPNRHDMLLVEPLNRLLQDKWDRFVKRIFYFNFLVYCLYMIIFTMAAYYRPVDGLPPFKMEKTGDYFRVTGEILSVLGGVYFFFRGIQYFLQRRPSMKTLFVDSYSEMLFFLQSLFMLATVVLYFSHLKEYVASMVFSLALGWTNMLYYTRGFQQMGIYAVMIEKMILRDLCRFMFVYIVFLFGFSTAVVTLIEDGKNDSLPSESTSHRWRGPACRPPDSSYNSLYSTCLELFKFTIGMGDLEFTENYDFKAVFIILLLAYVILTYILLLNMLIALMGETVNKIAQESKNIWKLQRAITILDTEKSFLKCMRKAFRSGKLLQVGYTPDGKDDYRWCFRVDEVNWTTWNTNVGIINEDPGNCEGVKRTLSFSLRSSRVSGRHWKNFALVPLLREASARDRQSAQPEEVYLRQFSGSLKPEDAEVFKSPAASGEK
# T1 sequence (Q8NER1 whole entry): as above
compound,measurement,setting,value
"CCCCCOc1nc(C(F)(F)F)ccc1CNC(=O)C(C)c1ccc(NS(C)(=O)=O)c(F)c1 (stereo not shown) [Example 375, 2-(3-fluoro-4-(methylsulfonamido)phenyl)-N-((2-(pentyloxy)-6-(trifluoromethyl)pyridin-3-yl)methyl)propanamide]",IC50,[1],0.03 µM
"CCOCCOc1nc(C(C)(C)C)ccc1CNC(=O)C(C)c1ccc(NS(C)(=O)=O)c(F)c1 (stereo not shown) [Example 378, N-((6-tert-butyl-2-(2-ethoxyethoxy)pyridin-3-yl)methyl)-2-(3-fluoro-4-(methylsulfonamido)phenyl)propanamide]",Ki,[2],0.0239 µM
same,IC50,[1],0.325 µM
"Cc1cc(C(F)(F)F)nc(N2CCC(C)CC2)c1CNC(=O)C(C)c1ccc(NS(C)(=O)=O)c(F)c1 (stereo not shown) [Example 318, N-(4,4′-dimethyl-6′-trifluoromethyl-3,4,5,6-tetrahydro-2H-[1,2′]bipyridinyl-3′-ylmethyl)-2-(3-fluoro-4-methylsulfonamido-phenyl)-propionamide]",Ki,[2],0.0175 µM
same,inhibition at 5 µM,[1]; [3],4%
same,inhibition at 10 µM,[1]; [3],32%
"CCCC(CCC)Oc1nc(C(F)(F)F)ccc1CNC(=O)C(C)c1ccc(NS(C)(=O)=O)c(F)c1 (stereo not shown) [Example 336, 2-(3-fluoro-4-methylsulfonamido-phenyl)-N-[2-(1-propyl-butoxy)-6-trifluoromethyl-pyridin-3-ylmethyl]-propionamide]",Ki,[2],0.0007 µM
same,inhibition at 0.1 µM,[1]; [3],35%
same,inhibition at 1 µM,[1]; [4],50%
"CC(C(=O)NCc1ccc(C(F)(F)F)nc1OC1CCC(C(F)(F)F)CC1)c1ccc(NS(C)(=O)=O)c(F)c1 (stereo not shown) [Example 340, 2-(3-fluoro-4-methylsulfonamido-phenyl)-N-[6-trifluoromethyl-2-(4-trifluoromethyl-cyclohexyloxy)-pyridin-3-ylmethyl]-propionamide]",Ki,[2],0.0012 µM
same,IC50,[1],0.279 µM
"CC(C(=O)NCc1ccc(C(F)(F)F)nc1N1C[C@@H](C)O[C@@H](C)C1)c1ccc(NS(C)(=O)=O)c(F)c1 (stereo partly shown) [Example 311, N-[2-(2,6-dimethyl-morpholin-4-yl)-6-trifluoromethyl-pyridin-3-ylmethyl]-2-(3-fluoro-4-methylsulfonamido-phenyl)-propionamide]",Ki,[2],0.00143 µM
same,IC50,[1],1.09 µM
CC(C)COc1nc(C(C)(C)C)ccc1CNC(=O)C(C)c1ccc(NS(C)(=O)=O)c(F)c1 (stereo not shown) [Compound 353],inhibition at 0.05 µM,"[1]; @ 0.05 μM, read-out: inhibition in percent, IC50 (human) after pH stimulus",18%
CCCCCCOc1nc(C(C)(C)C)ccc1CNC(=O)C(C)c1ccc(NS(C)(=O)=O)c(F)c1 (stereo not shown) [Compound 236],inhibition at 0.1 µM,[1]; [3],2%
"COCCCOc1nc(C(C)(C)C)ccc1CNC(=O)C(C)c1ccc(NS(C)(=O)=O)c(F)c1 (stereo not shown) [Example 370, N-((6-tert-butyl-2-(3-methoxypropoxy)pyridin-3-yl)methyl)-2-(3-fluoro-4-(methylsulfonamido)phenyl)propanamide]",Ki,[2],0.0056 µM
same,IC50,[1],0.25 µM
CCCCOc1nc(C(F)(F)F)ccc1CNC(=O)C(C)c1ccc(NS(C)(=O)=O)c(C)c1 (stereo not shown) [Compound 256],inhibition at 0.01 µM,[1]; [3],15%
same,inhibition at 0.1 µM,[1]; [3],43%
"CCCCCc1nc(C(F)(F)F)ccc1CNC(=O)[C@H](C)c1ccc(NS(C)(=O)=O)c(F)c1 [Example 145, (R)-2-(3-fluoro-4-methylsulfonamido-phenyl)-N-(2-pentyl-6-trifluoromethyl-pyridin-3-ylmethyl)-propionamide]",Ki,[2],0.078 µM
same,inhibition at 10 µM,[1]; [3],49%
"CCC(C(=O)NCc1ccc(C(F)(F)F)nc1N1CCC(C)CC1)c1ccc(NS(C)(=O)=O)c(F)c1 (stereo not shown) [Example 347, 2-(3-fluoro-4-methylsulfonamido-phenyl)-N-(4-methyl-6′-trifluoromethyl-3,4,5,6-tetrahydro-2H-[1,2′]bipyridinyl-3′-ylmethyl)-butyramide]",Ki,[2],0.0016 µM
"CC(C(=O)NCc1c(CO)cc(C(C)(C)C)nc1OC1CCCC1)c1ccc(NS(C)(=O)=O)c(F)c1 (stereo not shown) [Example 261, N-(6-tert-butyl-2-cyclopentyloxy-4-hydroxymethyl-pyridin-3-ylmethyl)-2-(3-fluoro-4-methylsulfonamido-phenyl)-propionamide]","inhibition in percent, IC50 (human) after pH stimulus","[1]; @ 1 μM, ne = no effect",ne @ 1 μM
CCCCCCOc1nc(C(F)(F)F)ccc1CNC(=O)C(C)c1ccc(NS(C)(=O)=O)c(C)c1 (stereo not shown) [Compound 257],inhibition at 0.01 µM,[1]; [3],11%
same,inhibition at 0.1 µM,[1]; [3],63%
CC(C(=O)NCc1ccc(C(F)(F)F)nc1N1CCCCC1C)c1ccc(NS(C)(=O)=O)c(F)c1 (stereo not shown) [Compound 283],inhibition at 0.01 µM,[1]; [3],11%
same,inhibition at 0.1 µM,[1]; [3],43%
CC(C(=O)NCc1ccc(C(F)(F)F)nc1N1CCN(C)CC1)c1ccc(NS(C)(=O)=O)c(F)c1 (stereo not shown) [Compound 134],inhibition at 1 µM,[1]; [4],15%
CC1CCCN(c2nc(C(F)(F)F)ccc2CNC(=O)C(C)c2ccc(NS(C)(=O)=O)c(F)c2)C1 (stereo not shown) [Compound 282],inhibition at 0.01 µM,[1]; [3],12%
same,inhibition at 0.1 µM,[1]; [3],55%
"CC(C(=O)NCc1ccc(C(F)(F)F)cc1-c1cccc(Cl)c1)c1ccc(NS(C)(=O)=O)c(F)c1 (stereo not shown) [Example 322, N-(3′-chloro-5-trifluoromethyl-biphenyl-2-ylmethyl)-2-(3-fluoro-4 methylsulfonamido-phenyl)-propionamide]",inhibition at 0.1 µM,[1]; [3],25%
same,inhibition at 1 µM,[1]; [4],54%
CCCN(CCC)c1nc(C(F)(F)F)ccc1CNC(=O)C(C)c1ccc(NS(C)(=O)=O)c(C)c1 (stereo not shown) [Compound 331],inhibition at 0.1 µM,[1]; [3],18%
same,inhibition at 1 µM,[1]; [4],26%
same,inhibition at 5 µM,[1]; [3],22%
CC(C)OC1CCN(c2nc(C(F)(F)F)ccc2CNC(=O)C(C)c2ccc(NS(C)(=O)=O)c(F)c2)CC1 (stereo not shown) [Compound 162],inhibition at 0.1 µM,[1]; [3],31%
CC(C(=O)NCc1ccc(C(F)(F)F)nc1CCC(C)(C)C)c1ccc(NS(C)(=O)=O)c(F)c1 (stereo not shown) [Compound 263],inhibition at 0.01 µM,[1]; [3],4%
same,inhibition at 0.1 µM,[1]; [3],52%
CC(C(=O)NCc1ccc(C(F)(F)F)nc1N1CCC(CN(C)C)(c2ccccc2)CC1)c1ccc(NS(C)(=O)=O)c(F)c1 (stereo not shown) [Compound 259],inhibition at 0.1 µM,[1]; [3],0%
CC(C(=O)NCc1ccc(C(F)(F)F)cc1N1CCN(c2ccc(C(F)(F)F)cc2)CC1)c1ccc(NS(C)(=O)=O)c(F)c1 (stereo not shown) [Compound 248],inhibition at 1 µM,[1]; [4],63%
"CCOC(=O)c1cc(CNC(=O)C(C)c2ccc(NS(C)(=O)=O)c(F)c2)c(N2CCC(C)CC2)cc1C(F)(F)F (stereo not shown) [Example 351, 5-{[2-(3-fluoro-4-methylsulfonamido-phenyl)-propionylamino]-methyl}-4-(4-methyl-piperidin-1-yl)-2-trifluoromethyl-benzoic acid ethyl ester]",Ki,[2],0.044 µM
Cc1cc(C(C)C(=O)NCc2ccc(C(F)(F)F)nc2N2CCC(C)CC2)ccc1NS(C)(=O)=O (stereo not shown) [Compound 196],inhibition at 0.01 µM,[1]; [3],6%
same,inhibition at 0.1 µM,[1]; [3],48%
CC(C(=O)NCc1ccc(C(F)(F)F)nc1Nc1ccc(F)cc1)c1ccc(NS(C)(=O)=O)c(F)c1 (stereo not shown) [Compound 112],inhibition at 1 µM,[1]; [4],26%
COc1ccc(-c2nc(C(F)(F)F)ccc2CNC(=O)C(C)c2ccc(NS(C)(=O)=O)c(F)c2)cc1OC (stereo not shown) [Compound 326],inhibition at 1 µM,[1]; [4],8%
same,inhibition at 5 µM,[1]; [3],32%
CCCCC(CCCC)Oc1nc(C(F)(F)F)ccc1CNC(=O)C(C)c1ccc(NS(C)(=O)=O)c(F)c1 (stereo not shown) [Compound 352],inhibition at 1 µM,[1]; [4],27%
"CC(C(=O)NCc1ccc(C(F)(F)F)cc1-c1ccc(F)c(Cl)c1)c1ccc(NS(C)(=O)=O)c(F)c1 (stereo not shown) [Example 324, N-(3′-chloro-4′-fluoro-5-trifluoromethyl-biphenyl-2-ylmethyl)-2-(3-fluoro-4-methylsulfonamido-phenyl)-propionamide]",IC50,[1],0.033 µM
"CC1CC(C)CC(Oc2nc(C(F)(F)F)ccc2CNC(=O)C(C)c2ccc(NS(C)(=O)=O)c(F)c2)C1 (stereo not shown) [Example 377, N-((2-(3,5-dimethylcyclohexyloxy)-6-(trifluoromethyl)pyridin-3-yl)methyl)-2-(3-fluoro-4-(methylsulfonamido)phenyl)propanamide]",Ki,[2],0.003 µM
CC(C(=O)NCc1ccc(C(F)(F)F)cc1OC1CCCCC1)c1ccc(NS(C)(=O)=O)c(F)c1 (stereo not shown) [Compound 238],inhibition at 0.01 µM,[1]; [3],3%
CC(C(=O)NCc1ccc(C(F)(F)F)cc1N1CCN(C2CCCCC2)CC1)c1ccc(NS(C)(=O)=O)c(F)c1 (stereo not shown) [Compound 319],inhibition at 1 µM,[1]; [4],4%
CC(C(=O)NCc1ccc(C(F)(F)F)nc1N1CCN(C2CCCCC2)CC1)c1ccc(NS(C)(=O)=O)c(F)c1 (stereo not shown) [Compound 260],inhibition at 0.1 µM,[1]; [3],8.5%
